Reference: patent US20230241142A1, “USE OF A POLAR EXTRACT OF SKELETONEMA IN PHOTODYNAMIC THERAPY” (IFREMER, priority 2020, published 2023)

Tests used:
Format in all cases: cell-based
[1] = system: human sebocytes of the SEBO662AR line; assay: anti-lipogenic effect: total lipids (BODIPY probe) in stimulated sebocytes; conditions: cells stimulated with lipogenic mixture containing androgens + Cerulenin 10 µM
Method: The effect of S. marinoï polar algae extract on the overproduction of lipids was studied on human sebocytes of the SEBO662AR line (BIOALTERNATIVES line) stimulated by lipogenic and androgenic factors.
SEBO662AR human sebocytes were first cultured at 37° C. in the presence of 5% CO2 and antibiotics in a dedicated culture medium. After at least one day of culturing, lipogenesis is induced in the SEBO662AR cells by their incubation in the presence of lipogenic and androgenic factors. The cells are then incubated in the presence or in the absence of 3 distinct concentrations of the polar extract. As a positive control of lipogenesis inhibitory activity, the SEBO662AR cells are incubated in the presence of cerulenin. At the end of the incubation period, the total lipids are fluorescently labelled, and the inhibition of lipogenesis is determined for each condition.

[2] = system: normal human epidermal keratinocytes (NHEK); assay: cell viability (WST-8) of Poly(I:C)-stimulated keratinocytes; conditions: NHEK stimulated with Poly(I:C) 1 µg/mL + Bafilomycin 100 nM
Method: The anti-inflammatory properties of S. marinoï polar algae extract were evaluated on normal human epidermal keratinocytes (NHEK)
(§1) These NHEK human epidermal keratinocytes were seeded in K-SFM medium supplemented with 0.25 ng/mL of EGF (Epidermal Growth Factor), 25 µg/mL of pituitary extract and 25 µg/mL of Gentamycin in 96-well plates to then be incubated at 37° C. under an atmosphere containing 5% CO2. After at least one day of culturing, the NHEK cells are pre-incubated for 24 hours in the presence or absence of different concentrations of the S. marinoï polar extract. As a positive control of anti-inflammatory activity, NHEK cells were also pre-incubated in the presence of bafilomycin (100 nM). After this pre-incubation, the treatments were renewed and the NHEK cells are then incubated for 24 hours in the presence of poly (I:C) for inducing inflammation. A control condition without inflammation inducer (unstimulated control) was performed in parallel.

[3] = system: normal human epidermal keratinocytes (NHEK); assay: anti-inflammatory effect: IL-6 secreted by Poly(I:C)-stimulated keratinocytes (ELISA); conditions: NHEK stimulated with Poly(I:C) 1 µg/mL + Bafilomycin 100 nM
Method: as §1, with “The anti-inflammatory properties of S. marinoï polar algae extract were evaluated on normal human epidermal keratinocytes (NHEK) These” for “These”, “parallel. After incubation, the culture supernatant was collected to determine the level of keratinocyte inflammation by ELISA by measuring the amounts of IL-6 secreted.” for “parallel.”

C/C=C/C/C=C/CCC(=O)[C@H]1O[C@H]1C(N)=O [Cerulenin, cerulenin]
Lipids (BODIPY® probe) Fluorescence intensity /Number of nuclei [1]: 188 853^∗∗ | Stimulation % [1]: 63%

CO/C1=C\C(C)=C\[C@@H](C)[C@@H](O)[C@@H](C)C/C(C)=C/C=C/[C@H](OC)[C@@H]([C@@H](C)[C@@H](O)[C@H](C)[C@@]2(O)C[C@@H](O)[C@H](C)[C@@H](C(C)C)O2)OC1=O [Bafilomycin, bafilomycin]
Cell viability (WST-8) [2]: 100 | IL6 [3]: 13 pg/mL
